{"source": "patent US6495567B1", "about": "“Triaryl methane compounds and their use in the treatment of diarrhea and scours” (Beth Israel Deaconess Medical Center, priority 1996, dated 2002)", "key": {"T84 cells": {"tested_on": "T84 cells", "experiment": "Electrogenic Cl- secretion (short circuit current, Isc) in confluent T84 monolayers", "type": "cell-based, human"}, "basolateral K+ channels": {"tested_on": "basolateral K+ channels", "experiment": "Basolateral K+ conductance in T84 monolayers permeabilized apically with amphotericin B", "type": "cell-based, human", "experimental": "Selective mebrane Permeabilization and Measurement of Potassium Conductance of the Basolateral Membrane. The basolateral potassium conductance was measured using the technique developed by Dawson and co-workers. A potassium gradient (mucosal to serosal) was first established across the monolayer using asymmetric mucosal and serosal buffers containing K^+ as the sole permeant ion. The addition of amphotericin B (20 μM) to the mucosal reservoir forms conductive pores in the apical membrane, and thus removes all resistance to transepithelial potassium movement across this membrane. Thus, under the conditions of the experiment, in which the monolayer is short circuited (i.e., voltage-clamped at zero potential) and the transepithehal potassium gradient is constant, the amphotericin-dependent Isc becomes a measure of the rate of the transepithelial potassium flux across basolateral membranes. Changes in short circuit current (Isc), then represent changes in basolateral K^+ conductances (gK). Isc and K^+ conductances were measured using calomel electrodes, 3M KCI-agar bridges, and a voltage clamp (University of Iowa, Iowa City). To generate a voltage-current channel relationships, currents were elicited by 1 sec test potentials from −80 to +80 in 10 mV increments in the asymmetrical high K^+ gluconate solution.\nCalculation of Basolateral Membrane K^+ Permeability: Membrane Permeabilities were Calculated According to the Formula:\n^PK=(cm/s)=^JK(mM/cm^2·s)/Δ[K^+](mM/cm^3)\nwhere Δ[K^+] is equal to the difference in K^+ concentration (135 mM) between the asymmetric apical and basolateral bathing solutions. Maximal Isc values were converted into K^+ fluxes by dividing by the Faraday constant F (96,500 coulombs/mol) as previously described (Huflejt et al., J. Clin. Invest. 93: 1900-1910 (1994)).\nBasolateral K+ transport was examined in T84 monolayers permeabilized apically by pretreatment with amphotericin B. Apical and basolateral buffers contained K+ as the sole permeant ion. All studies were performed with a 135 mM basolaterally directed K+ gradient. This method has been utilized previously to examine both Cl— and K+ transport in T84 cells and HT29-Cl.16E cells. Briefly, ion conductances in the luminal or basolateral membranes of confluent T84 cell monolayers can be assessed separately by selectively permeabilizing the apical or basolateral membrane using the ionophore amphotericin B. This artificially removes all electrical resistance to ion transport across the plasma membrane containing pores formed by amphotericin B. As a result, the intact contralateral plasma membrane becomes rate limiting for transepithelial ion transport. Agonist-dependent changes in ion conductances can be assessed directly either as transepithelial short circuit current (Isc) in the presence of established ion gradients, or as transepithelial conductance (G) in the presence of established transepithelial potentials."}, "[1]": {"tested_on": "apical membrane Cl- channels", "experiment": "Apical Cl- conductance in T84 monolayers permeabilized basolaterally with amphotericin B", "type": "cell-based, human", "conditions": "symmetrical Cl- 142 mM; forskolin 10 μM"}, "[2]": {"tested_on": "apical membrane Cl- channels", "experiment": "125I efflux from T84 monolayers", "type": "cell-based, human", "experimental": "(§1) After four baseline samples were obtained, the cells were treated (at t=8 minutes) with vasoactive intestinal peptide (VIP, […]) or thapsigargin (5 μM) to stimulate Cl— secretion, and an additional 15 timed samples were obtained. Finally, the cell monolayer was rinsed, cut with its support from the polystyrene ring, and the residual cell-associated radioactivity was determined. Monolayers were maintained at 37° C. in room air throughout the study. ^125I was counted by gamma counting and normalized to percent total uptake as previously described (Venglarik, et al, Am. J. Physiol. (Cell Physiol. 28):C358-C364 (1990)."}, "[3]": {"tested_on": "intestinal fluid secretion induced by cholera toxin", "type": "in vivo, Balb/C mice"}, "[4]": {"tested_on": "basolateral NaK2Cl cotransporters"}, "rabbit colonic mucosa": {"tested_on": "rabbit colonic mucosa", "experiment": "Ussing chamber studies using rabbit colonic mucosa", "conditions": "clotrimazole 30 μM; forskolin 10 μM", "experimental": "4 male, New Zealand rabbits (2.5 kg) were anesthetized by an intravenous injection of pentobarbital (0.5 ml/kg). A 15 cm length of distal colon was removed and opened longitudinally. […] The volume of fluid on each side of the mucosa was 7 ml.\nPotential difference and Isc were monitored continuously and registered every 10 minutes."}, "[5]": {"tested_on": "basolateral NaK2Cl cotransporters", "experiment": "Bumetanide-sensitive 86Rb uptake in T84 monolayers", "conditions": "33 μM for 30 min"}, "basolateral K+ channel": {"tested_on": "basolateral K+ channel", "experiment": "86Rb efflux from T84 monolayers (K+ channel activity)", "type": "cell-based, human", "experimental": "as §1, with “Cl^−” for “Cl—”, “^86Rb” for “^125I”, “scintillation” for “gamma”"}, "[6]": {"conditions": "forskolin 10 μM, carbachol 100 μM"}, "[7]": {"conditions": "33 μM, final 30 minutes of preincubation"}}, "note": "Like-named read-outs stand apart in the source and are kept apart here."}
{"molecule": "OC(c1ccccc1)(c1ccccc1)c1ccccc1Cl", "note": "[2-chlorophenyl-bis-phenyl methanol]", "values": [{"measurement": "Inhibition of cAMP and Ca++ elicited chloride secretion", "setting": "T84 cells; T84 cells", "result": "effective at inhibiting chloride secretion"}, {"measurement": "Inhibition of time course of K+ transport after forskolin and carbachol", "setting": "basolateral K+ channels; [6]", "result": "Nearly identical results"}]}
{"molecule": "[Ba+2].[Cl-].[Cl-]", "note": "[BaCl2]", "values": [{"measurement": "Inhibition of Cl- secretory response (Isc) to Ca++-dependent agonist carbachol", "setting": "T84 cells", "result": "no apparent affect"}, {"measurement": "Inhibition of Cl- secretory response (Isc) to cAMP mediated agonist VIP", "setting": "T84 cells", "result": "strongly inhibited"}, {"measurement": "Effect on K+ transport induced by subsequent addition of carbachol", "setting": "basolateral K+ channels; carbachol 100 μM, same monolayers, BaCl2 3 mM", "result": "no detectable effect"}, {"measurement": "Inhibition of cAMP-sensitive IK elicited by forskolin", "setting": "basolateral K+ channels; forskolin 10 μM, BaCl2 3 mM basolateral", "result": "greater than 70%"}]}
{"molecule": "C[C@@H]1[C@H](O)[C@@H](C)/C=C/C=C/C=C/C=C/C=C/C=C/C=C/[C@H](O[C@@H]2O[C@H](C)[C@@H](O)[C@H](N)[C@@H]2O)C[C@@H]2O[C@](O)(C[C@@H](O)C[C@@H](O)[C@H](O)CC[C@@H](O)C[C@@H](O)CC(=O)O[C@H]1C)C[C@H](O)[C@H]2C(=O)O", "note": "[amphotericin B]", "values": [{"measurement": "Increase in conductance on initial permeabilization", "setting": "basolateral K+ channels; amphotericin B apical", "result": "49±19", "unit": "%"}]}
{"molecule": "C[N+](C)(C)CCOC(N)=O", "note": "[carbachol]", "values": [{"measurement": "Carbachol-induced IscK, carbachol added alone", "setting": "basolateral K+ channels; apically permeabilized monolayers", "result": "111.7±7.4", "unit": "μA/cm^2"}, {"measurement": "Carbachol-induced IscK, carbachol added after forskolin", "setting": "basolateral K+ channels; apically permeabilized monolayers, forskolin 10 μM", "result": "180.7±15.7", "unit": "μA/cm^2"}]}
{"molecule": "Clc1ccccc1C(c1ccccc1)(c1ccccc1)n1ccnc1", "note": "[clotrimazole]", "values": [{"measurement": "Effect on forskolin- or thapsigargin-stimulated Cl- conductances", "setting": "[1]", "result": "no detectable effect"}, {"measurement": "Effect on time course of 125I efflux from monolayers treated with VIP", "setting": "[2]; 33 μM clotrimazole", "result": "little or no effect"}, {"measurement": "Effect of pretreatment on 125I loading of the cells", "setting": "[2]; [7]", "result": "did not alter"}, {"measurement": "Rate constant for 125I efflux", "setting": "[2]; VIP, 33 μM clotrimazole, not treated 0.0645, n=2 in duplicate", "result": 0.0637, "unit": "% uptake/minute"}, {"measurement": "IC50", "setting": "T84 cells; Homo sapiens, T84, read-out: IC50 for inhibition of secretory response to E. Coli heat-stabile toxin", "result": 15, "unit": "µM"}, {"measurement": "Inhibition of cAMP and Ca++ elicited chloride secretion", "setting": "T84 cells; T84 cells", "result": "most potent inhibitor tested"}, {"measurement": "Inhibition of Cl- secretory response (Isc) to cAMP mediated agonist VIP", "setting": "T84 cells; T84 cells, VIP 5 nM, BaCl 3 mM, charybdotoxin 100 nM", "result": "inhibited"}, {"measurement": "Inhibition of Cl- secretory response (Isc) to Ca++-dependent agonist carbachol", "setting": "T84 cells; T84 cells, carbachol 100 mM, BaCl 3 mM, charybdotoxin 100 nM", "result": "inhibited"}, {"measurement": "Apparent potency of inhibition at a fixed time point, basolateral versus apical application", "setting": "T84 cells; T84 monolayers", "result": "greater when applied basolaterally than apically"}, {"measurement": "Inhibition with basolateral application alone compared with both sides of the monolayer", "setting": "T84 cells; T84 monolayers", "result": "almost as effective as incubation on both sides"}, {"measurement": "Reversibility of inhibition of Cl- secretion", "setting": "T84 cells; after 60 min recovery in the presence of 0.01 mg/ml bovine serum albumin, n=4", "result": "96±2", "unit": "%"}, {"measurement": "Potentiation of Cl- secretory responses to either agonist at low doses", "setting": "T84 cells; low doses (=10^-7 or less)", "result": "5-10%"}, {"measurement": "Inhibition of secretory response to agonists of the cAMP signalling cascade", "setting": "T84 cells; preincubation 33 μM, 5 μM VIP, 10 μM forskolin or 3 mM 8Br-cAMP", "result": "inhibited"}, {"measurement": "Inhibition of Cl- secretory response to Ca++-dependent agonists", "setting": "T84 cells; pretreatment 33 μM, carbachol 100 μM, thapsigargin 5 μM or ionomycin 10 μm", "result": "inhibited strongly"}, {"measurement": "Inhibition of the synergistic secretory response to VIP plus carbachol", "setting": "T84 cells; same monolayers", "result": "parallel the inhibition of secretion promoted by Ca^++ agonists alone"}, {"measurement": "Reduction of intestinal fluid secretion induced by cholera toxin", "setting": "[3]; 5 hours", "result": 86, "unit": "%"}, {"measurement": "Effect on intestinal secretion in the absence of cholera toxin", "setting": "[3]; mouse, in vivo", "result": "no effect"}, {"measurement": "Bumetanide-sensitive fractional component of 86Rb uptake", "setting": "[4]", "result": "88±3.2", "unit": "% total uptake"}, {"measurement": "Inhibition of time course of forskolin induced Isc", "setting": "rabbit colonic mucosa", "result": "inhibited strongly"}, {"measurement": "Reduction of total amount of 86Rb uptake", "setting": "[5]; VIP, mean±SEM, n=6", "result": "53.6±15.8", "unit": "%"}, {"measurement": "Effect on bumetanide-sensitive fractional component of 86Rb uptake", "setting": "[5]; bumetanide 10 μM", "result": "no effect"}, {"measurement": "Inhibition of time course of K+ transport after forskolin and carbachol", "setting": "basolateral K+ channels; [6]", "result": "significantly inhibited"}, {"measurement": "Reduction of rate constant for VIP-stimulated 86Rb efflux", "setting": "basolateral K+ channel; 33 µM", "result": 87, "unit": "%"}, {"measurement": "Rate constant for VIP-stimulated 86Rb efflux", "setting": "basolateral K+ channel; 33 μM clotrimazole, untreated 0.0465", "result": 0.0062, "unit": "% uptake/minute"}, {"measurement": "Rate constant for thapsigargin-stimulated 86Rb efflux", "setting": "basolateral K+ channel; 33 μM clotrimazole, untreated 0.048, n=2", "result": 0.011, "unit": "% uptake/minute"}, {"measurement": "Effect of pretreatment on 86Rb loading of the cells", "setting": "basolateral K+ channel; [7]", "result": "did not alter"}, {"measurement": "Inhibition of baseline and Ca++ stimulated 86RB efflux", "setting": "basolateral K+ channel; T84 cells with VIP or thapsigargin", "result": "significantly inhibited"}]}
{"molecule": "Clc1ccc(COC(Cn2ccnc2)c2ccc(Cl)cc2Cl)cc1", "note": "(stereo not shown) [econazole]", "values": [{"measurement": "Inhibition of cAMP and Ca++ elicited chloride secretion", "setting": "T84 cells; T84 cells", "result": "effective at inhibiting chloride secretion"}]}
{"molecule": "CC(=O)N1CCN(c2ccc(OCC3COC(Cn4ccnc4)(c4ccc(Cl)cc4Cl)O3)cc2)CC1", "note": "(stereo not shown) [ketoconazole]", "values": [{"measurement": "Inhibition of cAMP and Ca++ elicited chloride secretion", "setting": "T84 cells; T84 cells", "result": "effective at inhibiting chloride secretion"}]}
{"molecule": "Clc1ccc(COC(Cn2ccnc2)c2ccc(Cl)cc2Cl)c(Cl)c1", "note": "(stereo not shown) [miconazole]", "values": [{"measurement": "Inhibition of cAMP and Ca++ elicited chloride secretion", "setting": "T84 cells; T84 cells", "result": "effective at inhibiting chloride secretion"}]}
{"molecule": "charybdotoxin", "values": [{"measurement": "Inhibition of Cl- secretory response (Isc) to Ca++-dependent agonist carbachol", "setting": "T84 cells", "result": "strongly inhibited"}, {"measurement": "Inhibition of Cl- secretory response (Isc) to cAMP mediated agonist VIP", "setting": "T84 cells", "result": "minimal affects"}, {"measurement": "Effect on K+ transport induced by subsequent addition of forskolin", "setting": "basolateral K+ channels; charybdotoxin 100 nM", "result": "no detectable effect"}, {"measurement": "Inhibition of carbachol induced Ca++ IK", "setting": "basolateral K+ channels; pretreatment with charybdotoxin 100 nM", "result": 50, "unit": "%"}]}
